Measurements reported in US10508120B2, “TYK2 inhibitors and uses thereof” (Nimbus Lakshmi, Inc., priority 2017, dated 2019).
Read-outs that look alike come from different tables or passages of the source.

Experiments:
[1] = molecular target: JAK2 kinase domain (JH1) (Homo sapiens (Human), UniProt O60674); assay: JAK2 Radioactive Kinase Assay; format: biochemical; conditions: read-out: JAK2 JH1% Inhibition @ 10 μM
Outline: (§1)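 Each kinase domain is incubated with test compound at 10 μM. Activity is then measured radiometrically and expressed as percent inhibition relative to uninhibited enzyme.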

[2] = molecular target: human TYK2 (JH2domain-pseudokinase) (Homo sapiens (Human), UniProt P29597); assay: TYK2 JH2 Domain Binding Assay (KINOMEscan)
human TYK2 (JH2domain-pseudokinase), sequence (P29597 556-888): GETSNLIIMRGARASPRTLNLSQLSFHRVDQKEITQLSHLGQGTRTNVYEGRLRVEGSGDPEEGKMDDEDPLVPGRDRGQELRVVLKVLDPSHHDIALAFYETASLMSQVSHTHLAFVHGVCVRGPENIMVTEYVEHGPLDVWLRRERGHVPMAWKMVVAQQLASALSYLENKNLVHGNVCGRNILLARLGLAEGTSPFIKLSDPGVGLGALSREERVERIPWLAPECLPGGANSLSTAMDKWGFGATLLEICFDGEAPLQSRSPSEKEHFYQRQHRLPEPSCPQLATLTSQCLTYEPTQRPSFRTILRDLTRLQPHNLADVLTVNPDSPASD
Outline: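 Competition binding of an NFkB-DBD fusion of human TYK2 JH2 (G556–D888), expressed in HEK293 and used as crude extract at <0.1 nM, against immobilized ligand beads; 1 h at room temperature in PBS/Tween/DTT/BSA buffer, 0.9% DMSO.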

[3] = molecular target: JAK2/JAK2 homdimeric complex (Homo sapiens (Human), UniProt O60674); assay: GM-CSF Induced pSTAT5 in Human PBMC; format: cell-based; conditions: GM-CSF 5 ng/mL for 20 minutes, pSTAT5 by MSD, read-out: PBMC_GMCSF_pSTAT5 IC50
JAK2/JAK2 homdimeric complex, sequence (O60674 whole entry, the tested form may be a part): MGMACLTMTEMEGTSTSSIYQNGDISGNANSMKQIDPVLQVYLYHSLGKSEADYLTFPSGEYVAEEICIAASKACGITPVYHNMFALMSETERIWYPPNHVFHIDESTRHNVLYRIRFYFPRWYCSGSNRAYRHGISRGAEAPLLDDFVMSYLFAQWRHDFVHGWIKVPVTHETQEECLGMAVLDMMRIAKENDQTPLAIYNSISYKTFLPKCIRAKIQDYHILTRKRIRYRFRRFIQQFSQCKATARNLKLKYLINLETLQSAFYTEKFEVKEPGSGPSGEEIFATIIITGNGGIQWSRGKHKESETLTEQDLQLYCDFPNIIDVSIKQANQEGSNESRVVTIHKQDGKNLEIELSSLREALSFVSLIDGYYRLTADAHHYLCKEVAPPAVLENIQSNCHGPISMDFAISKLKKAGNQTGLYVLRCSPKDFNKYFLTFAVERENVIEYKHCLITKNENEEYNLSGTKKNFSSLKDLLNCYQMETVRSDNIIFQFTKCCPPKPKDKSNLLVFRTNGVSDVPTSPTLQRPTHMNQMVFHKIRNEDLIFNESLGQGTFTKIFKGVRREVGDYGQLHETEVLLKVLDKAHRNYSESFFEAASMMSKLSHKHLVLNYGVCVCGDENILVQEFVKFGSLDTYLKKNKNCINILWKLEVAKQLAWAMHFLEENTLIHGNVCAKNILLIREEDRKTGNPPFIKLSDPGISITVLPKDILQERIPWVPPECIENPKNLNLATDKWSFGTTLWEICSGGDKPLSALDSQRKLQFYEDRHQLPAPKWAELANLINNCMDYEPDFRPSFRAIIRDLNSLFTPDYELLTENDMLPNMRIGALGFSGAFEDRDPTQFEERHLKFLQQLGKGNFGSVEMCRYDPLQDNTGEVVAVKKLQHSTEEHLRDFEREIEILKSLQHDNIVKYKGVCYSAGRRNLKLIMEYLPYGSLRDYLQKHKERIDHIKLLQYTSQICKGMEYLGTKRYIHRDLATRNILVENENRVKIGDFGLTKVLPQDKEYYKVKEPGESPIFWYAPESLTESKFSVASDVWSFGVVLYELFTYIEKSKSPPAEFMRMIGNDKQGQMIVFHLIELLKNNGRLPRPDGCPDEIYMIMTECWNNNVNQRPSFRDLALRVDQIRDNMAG
JAK2/JAK2 homdimeric complex, sequence (P32927 17-897 partner): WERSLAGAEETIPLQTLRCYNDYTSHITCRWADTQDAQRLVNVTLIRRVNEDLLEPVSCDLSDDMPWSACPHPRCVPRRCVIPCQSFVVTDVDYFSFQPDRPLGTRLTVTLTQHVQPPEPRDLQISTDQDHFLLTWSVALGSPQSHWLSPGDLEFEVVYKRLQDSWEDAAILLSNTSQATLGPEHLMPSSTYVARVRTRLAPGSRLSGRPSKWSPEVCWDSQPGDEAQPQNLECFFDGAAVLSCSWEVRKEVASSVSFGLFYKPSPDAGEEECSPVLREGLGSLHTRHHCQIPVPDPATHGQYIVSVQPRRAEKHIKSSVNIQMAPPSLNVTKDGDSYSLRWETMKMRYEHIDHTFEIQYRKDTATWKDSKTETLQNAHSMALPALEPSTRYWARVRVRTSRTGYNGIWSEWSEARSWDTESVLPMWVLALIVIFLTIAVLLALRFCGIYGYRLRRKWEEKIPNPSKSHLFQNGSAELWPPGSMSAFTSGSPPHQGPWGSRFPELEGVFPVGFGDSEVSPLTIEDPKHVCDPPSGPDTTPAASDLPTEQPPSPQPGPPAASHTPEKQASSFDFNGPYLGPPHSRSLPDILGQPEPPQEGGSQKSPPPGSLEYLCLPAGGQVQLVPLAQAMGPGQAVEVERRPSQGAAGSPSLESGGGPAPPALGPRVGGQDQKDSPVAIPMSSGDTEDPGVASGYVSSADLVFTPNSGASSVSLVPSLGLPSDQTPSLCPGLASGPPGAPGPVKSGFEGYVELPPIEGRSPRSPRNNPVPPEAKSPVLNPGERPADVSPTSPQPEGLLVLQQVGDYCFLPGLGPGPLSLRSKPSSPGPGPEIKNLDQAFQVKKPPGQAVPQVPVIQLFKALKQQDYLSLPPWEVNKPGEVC

[4] = molecular target: Tyk2 kinase domain (DH1) (Homo sapiens (Human), UniProt P29597); assay: Tyk2 Radioactive Kinase Assay; format: biochemical; conditions: read-out: Tyk2 JH1% Inhibition @ 10 μM
Tyk2 kinase domain (DH1), sequence (P29597 897-1176): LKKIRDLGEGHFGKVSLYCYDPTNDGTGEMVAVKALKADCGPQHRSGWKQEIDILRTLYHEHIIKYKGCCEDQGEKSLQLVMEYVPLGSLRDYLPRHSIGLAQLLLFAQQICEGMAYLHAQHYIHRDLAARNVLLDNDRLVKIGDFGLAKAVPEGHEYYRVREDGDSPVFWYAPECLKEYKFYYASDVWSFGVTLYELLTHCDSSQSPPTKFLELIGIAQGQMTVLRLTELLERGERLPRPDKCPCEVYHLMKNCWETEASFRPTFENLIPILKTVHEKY
Outline: as §1

[5] = molecular target: Tyk2/JAK2 (heterodimeric complex) (Homo sapiens (Human), UniProt P29597); assay: IL-12 Induced pSTAT4 in Human PBMC; format: cell-based; conditions: 1.7 ng/mL IL-12
Tyk2/JAK2 (heterodimeric complex), sequence (P29597 whole entry, other chains not shown): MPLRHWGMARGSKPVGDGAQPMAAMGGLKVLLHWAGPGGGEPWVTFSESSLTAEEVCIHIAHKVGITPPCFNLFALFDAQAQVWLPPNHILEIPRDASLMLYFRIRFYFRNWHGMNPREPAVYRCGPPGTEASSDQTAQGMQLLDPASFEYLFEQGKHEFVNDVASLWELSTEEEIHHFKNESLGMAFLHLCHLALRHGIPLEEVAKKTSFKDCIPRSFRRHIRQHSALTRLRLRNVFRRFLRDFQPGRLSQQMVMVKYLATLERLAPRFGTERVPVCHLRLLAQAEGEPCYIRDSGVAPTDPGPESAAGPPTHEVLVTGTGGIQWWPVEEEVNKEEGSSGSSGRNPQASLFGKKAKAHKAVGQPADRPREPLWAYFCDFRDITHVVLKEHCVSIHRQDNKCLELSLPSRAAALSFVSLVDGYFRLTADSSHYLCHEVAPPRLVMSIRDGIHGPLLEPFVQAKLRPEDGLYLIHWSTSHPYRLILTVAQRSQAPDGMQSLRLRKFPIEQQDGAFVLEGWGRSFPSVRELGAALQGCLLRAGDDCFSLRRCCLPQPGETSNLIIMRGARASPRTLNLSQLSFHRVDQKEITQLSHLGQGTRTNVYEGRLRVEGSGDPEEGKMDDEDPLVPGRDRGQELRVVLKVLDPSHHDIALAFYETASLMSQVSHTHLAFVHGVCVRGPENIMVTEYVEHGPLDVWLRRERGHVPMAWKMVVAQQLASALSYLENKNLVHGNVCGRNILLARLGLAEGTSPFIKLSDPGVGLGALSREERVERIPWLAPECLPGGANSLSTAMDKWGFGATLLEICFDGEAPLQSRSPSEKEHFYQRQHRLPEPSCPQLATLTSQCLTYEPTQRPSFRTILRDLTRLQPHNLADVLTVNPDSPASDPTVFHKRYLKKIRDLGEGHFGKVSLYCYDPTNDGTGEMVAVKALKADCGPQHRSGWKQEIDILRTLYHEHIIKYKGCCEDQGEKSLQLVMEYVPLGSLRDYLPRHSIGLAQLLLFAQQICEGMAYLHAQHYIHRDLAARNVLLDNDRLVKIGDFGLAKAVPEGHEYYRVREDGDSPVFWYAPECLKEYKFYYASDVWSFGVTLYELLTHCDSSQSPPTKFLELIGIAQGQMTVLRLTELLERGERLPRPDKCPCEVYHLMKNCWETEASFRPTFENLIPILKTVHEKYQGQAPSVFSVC
Description: The IL-12 Induced pSTAT4 assay evaluates the inhibition of IL-12 induced STAT4 phophorylation mediated by Tyk2/JAK2 (heterodimeric complex).

JAK2 kinase domain (JH1), sequence (O60674 849-1124): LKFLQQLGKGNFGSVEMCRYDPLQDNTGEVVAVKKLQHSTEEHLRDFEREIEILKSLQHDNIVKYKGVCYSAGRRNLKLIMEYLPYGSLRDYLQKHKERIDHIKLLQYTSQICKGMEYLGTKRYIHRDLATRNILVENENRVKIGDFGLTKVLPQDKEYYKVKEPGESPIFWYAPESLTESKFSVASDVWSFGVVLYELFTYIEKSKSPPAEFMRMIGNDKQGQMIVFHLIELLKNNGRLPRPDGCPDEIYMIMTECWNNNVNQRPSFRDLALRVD

Row | Compound | inhibition at 10 µM ([1]; compound at 10 μM, ATP 10 μM) [%] | Kd [2] [nM] | IC50 [3] [nM] | inhibition at 10 µM ([4]; compound at 10 μM, ATP 10 μM) [%] | IC50 [5] [nM] | inhibition at 10 µM ([1]; 10 μM compound, 10 μM ATP) [%] | inhibition at 10 µM ([4]; 10 μM compound, 10 μM ATP) [%]
1 | CNc1cc(Nc2cccnc2OC)nc2c(C(=O)NO)cnn12 [I-710, N-hydroxy-5-((2-methoxypyridin-3-yl)amino)-7-(methylamino)pyrazolo[1,5-a]pyrimidine-3-carboxamide] | < 50 | < 0.2 | > 50000 | < 50 | 100 to 500 | – | –
2 | CNc1cc(Nc2cccn(-c3ncc(C)s3)c2=O)nc2c(C(=O)N[C@@H]3CC[C@@H]3O)cnn12 [I-677] | < 50 | < 0.2 | > 2500 | < 50 | < 100 | – | –
3 | CNc1cc(-c2cn(C(C)C)c3ncccc23)nc2c(C(=O)N[C@H]3C[C@H](O)C3)cnn12 [I-630, N-((1r, 3r)-3-hydroxycyclobutyl)-5-(1-isopropyl-1H-pyrrolo[2,3-b]pyridin-3-yl)-7-(methylamino)pyrazolo[1,5-a]pyrimidine-3-carboxamide] | < 50 | < 0.2 | > 2500 | < 50 | < 100 | – | –
4 | CNc1cc(Nc2cccn(-c3cccc(C)n3)c2=O)nc2c(C(=O)N[C@H]3C[C@H]3F)cnn12 [I-131] | < 50 | 1 to 10 | > 12500 | < 50 | < 100 | – | –
5 | CNc1cc(Nc2cccnc2OC(F)F)nc2c(C(=O)N[C@H]3C[C@H]3F)cnn12 [I-153] | 50 to 70 | < 0.2 | > 12500 | < 50 | < 100 | – | –
6 | CNc1cc(Nc2cccn([C@H]3CC[C@H](OC)CC3)c2=O)nc2c(C(=O)NCC(C)(C)CO)cnn12 [I-544] | < 50 | < 0.2 | > 2500 | < 50 | < 100 | – | –
7 | CNc1cc(Nc2cccn(-c3cc(C)n(C)n3)c2=O)nc2c(C(=O)NC3CCC3)cnn12 [I-136] | < 50 | < 0.2 | > 2500 | < 50 | < 100 | – | –
8 | CNc1cc(Nc2cccn(-c3ccc(F)cn3)c2=O)nc2c(C(=O)N[C@H]3C[C@H]3F)cnn12 [I-115] | < 50 | < 0.2 | > 12500 | < 50 | < 100 | – | –
9 | CNc1cc(Nc2cccn(-c3ccc(C4CC4)nn3)c2=O)nc2c(C(=O)NC3CCC3)cnn12 [I-240] | < 50 | < 0.2 | > 2500 | < 50 | < 100 | – | –
10 | CNc1cc(Nc2cccnc2OC)nc2c(C(=O)NC[C@H](C)CO)cnn12 [I-483] | < 50 | < 0.2 | > 50000 | < 50 | < 100 | – | –
11 | CNc1cc(Nc2cc(C)cn(-c3cnn(C)c3)c2=O)nc2c(C(=O)N[C@H]3C[C@H]3F)cnn12 [I-235] | < 50 | < 0.2 | > 2500 | < 50 | < 100 | – | –
12 | CNc1cc(-c2cn(C(C)C)c3ncccc23)nc2c(C(=O)N[C@@H]3C[C@@H]3F)cnn12 (stereo in doubt) [I-225, N-((1R,2S)-2-fluorocyclopropyl)-5-(1-isopropyl-1H-pyrrolo[2,3-b]pyridin-3-yl)-7-(methylamino)pyrazolo[1,5-a]pyrimidine-3-carboxamide] | < 50 | < 0.2 | > 50000 | < 50 | < 100 | – | –
13 | CNc1cc(Nc2cc(Cl)cn(-c3ccn(C4CC4)n3)c2=O)nc2c(C(=O)N[C@H]3C[C@H]3F)cnn12 [I-332] | < 50 | < 0.2 | > 2500 | < 50 | < 100 | – | –
14 | CNc1cc(Nc2cccn([C@H]3CC[C@H](OC)CC3)c2=O)nc2c(C(=O)N[C@H]3CC[C@@H]3O)cnn12 [I-540] | < 50 | < 0.2 | > 12500 | < 50 | < 100 | – | –
15 | CNc1cc(Nc2cc(F)cnc2OCCOC)nc2c(C(=O)N[C@H]3C[C@H]3F)cnn12 [I-285] | < 50 | < 0.2 | > 50000 | < 50 | < 100 | – | –
16 | [2H]C([2H])([2H])Oc1ncccc1Nc1cc(NC)n2ncc(C(=O)N[C@H]3C[C@H](O)C3)c2n1 [I-321, N-((1r, 3r)-3-hydroxycyclobutyl)-5-((2-(methoxy-d3)pyridin-3-yl)amino)-7-(methylamino)pyrazolo[1,5-a]pyrimidine-3-carboxamide] | < 50 | < 0.2 | > 2500 | < 50 | < 100 | – | –
17 | CNc1cc(Nc2cccn(-c3cn(C)nc3F)c2=O)nc2c(C(=O)NC3CC3)cnn12 [I-606] | < 50 | < 0.2 | > 12500 | < 50 | 100 to 500 | – | –

Row | Compound | inhibition at 10 µM ([1]; compound at 10 μM, ATP 10 μM) [%] | Kd [2] [nM] | IC50 [3] [nM] | inhibition at 10 µM ([4]; compound at 10 μM, ATP 10 μM) [%] | IC50 [5] [nM] | inhibition at 10 µM ([1]; 10 μM compound, 10 μM ATP) [%] | inhibition at 10 µM ([4]; 10 μM compound, 10 μM ATP) [%]
18 | CNc1cc(Nc2cccn(C3CCCCC3)c2=O)nc2c(C(=O)N[C@H]3C[C@H]3F)cnn12 [I-305] | < 50 | < 0.2 | > 12500 | < 50 | < 100 | – | –
19 | CNc1cc(Nc2cccn(-c3ccn(C4CC4)n3)c2=O)nc2c(C(=O)N[C@@H]3C[C@@H]3F)cnn12 (stereo in doubt) [I-106, 5-((1-(1-cyclopropyl-1H-pyrazol-3-yl)-2-oxo-1,2-dihydropyridin-3-yl)amino)-N-((1R,2S)-2-fluorocyclopropyl)-7-(methylamino)pyrazolo[1,5-a]pyrimidine-3-carboxamide] | < 50 | < 0.2 | > 12500 | < 50 | < 100 | – | –
20 | CNc1cc(-c2cn(C(C)C)c3ncc(C)cc23)nc2c(C(N)=O)cnn12 [I-255] | < 50 | < 0.2 | > 50000 | < 50 | < 100 | – | –
21 | CNc1cc(Nc2cccnc2OC(F)F)nc2c(C(=O)NC3CCC3)cnn12 [I-151] | < 50 | < 0.2 | > 50000 | < 50 | < 100 | – | –
22 | CNc1cc(Nc2cccn(C3CCC4(CC3)OCCO4)c2=O)nc2c(C(=O)NC3CC3)cnn12 [I-393] | < 50 | < 0.2 | > 12500 | < 50 | < 100 | – | –
23 | CNc1cc(Nc2cccn([C@H]3CCCOC3)c2=O)nc2c(C(=O)N[C@@H]3CC[C@H]3O)cnn12 [I-725] | < 50 | < 0.2 | > 2500 | < 50 | < 100 | – | –
24 | CNc1cc(Nc2cc(F)cnc2OCCOC)nc2c(C(=O)NC3CCC3)cnn12 [I-290] | < 50 | 0.2 to 1 | > 2500 | < 50 | < 100 | – | –
25 | CNc1cc(Nc2cccn(-c3ncc(OC)cc3F)c2=O)nc2c(C(=O)N[C@H]3C[C@H]3F)cnn12 [I-673] | < 50 | < 0.2 | > 50000 | < 50 | < 100 | – | –
26 | CNc1cc(Nc2cccn([C@@H]3CCC[C@H](OC)C3)c2=O)nc2c(C(=O)N[C@@H]3C[C@@H]3F)cnn12 [I-840] | – | < 0.2 | > 50000 | – | < 100 | < 50 | < 50
27 | CNc1cc(Nc2cccn(-c3ccc(OC)cn3)c2=O)nc2c(C(=O)N[C@H]3C[C@H]3F)cnn12 [I-265] | < 50 | < 0.2 | > 12500 | < 50 | < 100 | – | –
28 | CNc1cc(Nc2cccn(-c3nccs3)c2=O)nc2c(C(=O)N[C@H]3C[C@H]3F)cnn12 [I-243] | < 50 | 0.2 to 1 | > 2500 | < 50 | < 100 | – | –
29 | CNc1cc(Nc2cccn(-c3cccnc3)c2=O)nc2c(C(=O)NC3CC3)cnn12 [I-747] | < 50 | < 0.2 | > 12500 | < 50 | 100 to 500 | – | –
30 | CNc1cc(-c2cn(C(C)C)c3ncc(Cl)cc23)nc2c(C(N)=O)cnn12 [I-272, 5-(5-chloro-1-isopropyl-1H-pyrrolo[2,3-b]pyridin-3-yl)-7-(methylamino) pyrazolo[1,5-a]pyrimidine-3-carboxamide] | < 50 | < 0.2 | > 12500 | < 50 | < 100 | – | –
31 | CNc1cc(Nc2cccc([C@@H]3CCCOC3)n2)nc2c(C(=O)N[C@H]3C[C@H]3F)cnn12 [I-562] | 50 to 70 | < 0.2 | > 50000 | < 50 | < 100 | – | –
32 | CNc1cc(Nc2cc(Cl)cn(C3CCCOC3)c2=O)nc2c(C(=O)NCC(C)(C)CO)cnn12 (stereo not drawn) [I-694] | < 50 | < 0.2 | > 50000 | < 50 | < 100 | – | –
33 | CNc1cc(Nc2cccc3ocnc23)nc2c(C(=O)N[C@@H]3CC[C@@H]3O)cnn12 [I-661] | < 50 | < 0.2 | > 12500 | < 50 | < 100 | – | –
